Reference: patent US12410155B2, “Salt form and crystal form of tetrahydrocyclohepta indazole compound” (Zhejiang Yangli Pharmaceutical Technology Co., Ltd., priority 2021, dated 2025)

Key:
Type in all cases: cell-based
[1] = tested on: MCF-7 cells; assay: MCF-7 cell proliferation inhibition assay (CTG); settings: Homo sapiens
Experimental: (§1) (4) MCF-7, T-47D, and CAMA-1 Cell Proliferation Inhibition Assay
(§2) The inhibitory effect of the test compound of formula (I) on the proliferation of MCF-7, CAMA-1, and T-47D cells was analyzed. For MCF-7 cells, ten concentration gradients ranging from 100 nM to 0.0003815 nM were tested, with three replicates for each concentration. For CAMA-1 cells, nine concentration gradients ranging from 100 nM to 0.001526 nM were tested, also with three replicates for each concentration. For T-47D cells, nine concentration gradients ranging from 2 μM to 0.00512 nM were tested, with three replicates for each concentration. Each experiment was conducted twice independently.
MCF-7 cells that reached 80% cell fusion were digested using trypsin, centrifuged, resuspended, and counted. Cell suspensions were prepared using the corresponding culture medium, and 45 μL of the suspension was added to each well of a 384-well plate. The plate was then incubated at 37° C. in a cell incubator with 5% CO2. The test compound of formula (I) was dissolved in DMSO to an initial concentration of 20 μM and subjected to a 4-fold serial dilution to achieve ten different concentrations. After overnight incubation, the diluted compound was further diluted with the corresponding cell culture medium. The resulting mixture was transferred to the respective wells of the cell plate, starting with a final concentration of 100 nM, followed by a 4-fold serial dilution to achieve ten concentrations. The positive control wells contained 2 μM fulvestrant. The plate was mixed, centrifuged, and incubated at 37° C. in a cell incubator with 5% CO2 for the specified number of days according to the above table.
After incubation for the specified time, the cell culture plate was removed, and the CTG reagent was added. The plate was thoroughly mixed, centrifuged, and incubated at room temperature for 10 minutes. The readings were taken using the Envision multi-label analyzer. Data analysis:
Positive control: cells treated with 2 μM fulvestrant; negative control: cells treated with 0.5% DMSO. […]

[2] = tested on: CAMA-1 cells; assay: CAMA-1 cell proliferation inhibition assay (CTG); settings: Homo sapiens, 1 nM estradiol
Experimental: as §1
CAMA-1: EMEM (without phenol red) containing 10% charcoal-stripped serum (500 mL culture medium containing 440 mL EMEM, 50 mL charcoal-stripped serum, 5 mL NEAA, 5 mL 100 mM sodium pyruvate).
as §2
The CAMA-1 cells were treated with starvation medium for three days, followed by trypsin digestion, centrifugation, resuspension, and counting. Cell suspensions were prepared using the corresponding culture medium, and 80 μL of the suspension was added to each well of a 96-well plate. The plate was then incubated at 37° C. in a cell incubator with 5% CO2. The test compound of formula (I) was dissolved in DMSO to an initial concentration of 20 μM and subjected to a 4-fold serial dilution to achieve nine different concentrations. After overnight incubation, the diluted compound was further diluted with the corresponding cell culture medium. The resulting mixture was transferred to the respective wells of the cell plate, starting with a final concentration of 100 nM, followed by a 4-fold serial dilution to achieve nine concentrations. The positive control wells contained 2 μM fulvestrant, and 1 nM estradiol was added to the entire plate. […]
After incubation for the specified time, the cell culture plate was removed, and the CTG reagent was added. […] The readings were taken using the Envision multi-label analyzer. […]

[3] = tested on: HCC1428 cells; assay: HCC1428 cell proliferation inhibition assay (CTG); settings: Homo sapiens, HCC1428, 168 h, 7 days
Experimental: (5) HCC1428 and MDA-MB-134VI Cell Proliferation Inhibition Assay
The initial concentration of the compound of formula (I) was set at 200 nM, followed by 4-fold serial dilutions to achieve ten concentration gradients.
• 1) HCC1428 cells were cultured in RPMI 1640 complete growth medium containing 10% FBS and 1% PenStrep. • 2) When the cells in a T75 culture flask reached 80-90% cell fusion, they were digested with trypsin and collected. The cell passages used were the seventh generation for the first independent experiment and the thirteenth generation for the second independent experiment. • 3) The cells were centrifuged at 1000 rpm, resuspended in complete medium, and counted. The cell densities were 1.30×10^6 cells/mL for the first experiment and 9.50×10^5 cells/mL for the second experiment, with viability both exceeding 95%. • 4) Cell suspensions were prepared in complete medium at a density of 1.25×10^4 cells/mL for both experiments. […] 100 μL of CellTiter-Glo® reagent was added to each well. The plate was incubated at room temperature in the dark for 30 minutes. • 8) Luminescence values were read using a BMG plate reader.
The IC50 (half-maximal inhibitory concentration) of the compound was obtained using the following nonlinear fitting formula: […]

`FCCCN1CC[C@H](Nc2cnc(C3=C(CC(F)(F)F)CCCc4c3ccc3[nH]nc(F)c43)cn2)C1` [Compound of formula (I)] showed an IC50 ([1]; MCF7, First experiment) of 0.19 nM, an IC50 ([1]; MCF7, Mean ± SD) of 0.18 ± 0.013 nM and an IC50 ([1]; MCF7, Second experiment) of 0.16 nM. The IC50 ([2]; CAMA-1, First experiment) was 1.19 nM, the IC50 ([2]; CAMA-1, Mean ± SD) was 1.29 ± 0.1 nM and the IC50 ([2]; CAMA-1, Second experiment) was 1.39 nM. For the same compound, the IC50 ([3]; First experiment) was 0.49 nM, the IC50 ([3]; Mean ± SD) was 1.55 ± 0.99 nM and the IC50 ([3]; Second experiment) was 1.34 nM.
